In patent US20050271676A1, “Inducing cellular immune responses to human immunodeficiency virus-1 using peptide and nucleic acid compositions” (Epimmune Inc., priority 1993, published 2005):
pIC50: −log10 of the molar value. No end group written: not given here.

Key:
HLA-A*0201 = HLA-A*0201 (Homo sapiens, UniProt P04439, D140Y/D185E/D98H/E176V/E277Q/G131W/G231S/I119V/I121R/I166T/I218V/L300P/L318F/N151K/N90K/P208A/P217A/Q86G/Q94H/R138H/R169H/T345S); experiment: purified HLA class I binding assay, A*0201; settings: Table VIII, unit not given
HLA-A*2402 = HLA-A*2402 (Homo sapiens, UniProt P04439, D101N/D140Y/D185E/E176V/E190D/F33S/G103R/G107R/I119L/I121M/I306V/K335N/L105A/L180Q/L300P/N151K/N90K/Q86E/Q94H/R106L/R138H/R89G/T104I/T345S/V100E/W191G/Y123F); experiment: purified HLA class I binding assay, A*2402
HLA-A*0301 = target: T1, HLA-A*0301 (Homo sapiens, UniProt P04439); experiment: purified HLA class I binding assay, A*0301; settings: Table IX, HIV A03 super motif peptides; binding value, unit not given
T1 construct: endogenous in cells; host or cells: GM3107

HLA-A*1101 = HLA-A*1101 (Homo sapiens, UniProt P04439, A114D/D185E/E176A/F33Y/L180Q/S129P/T187R); experiment: purified HLA class I binding assay, A*1101
HLA-A*3101 = HLA-A*3101 (Homo sapiens, UniProt P04439, A270S/D185E/E176V/E277Q/F33T/G231S/G80R/H175R/I121M/I218V/I322F/K168Q/L300P/L318F/M331R/P217A/Q94H/R138Q/T323A/T345S/T97I/V358M); experiment: purified HLA class I binding assay, A*3101; settings: Table IX, HIV A03 super motif peptides; binding value, unit not given
HLA-A*6801 = HLA-A*6801 (Homo sapiens, UniProt P04439, A269V/D185E/E176V/E277Q/E87N/F33Y/G231S/I121M/I166T/I218V/L180W/L300P/L318F/N151K/P208A/P217A/Q86R/R169H/T345S); experiment: purified HLA class I binding assay, A*6801; settings: Table IX, HIV A03 super motif peptides; binding value, unit not given
HLA-A*0202 = HLA-A*0202 (Homo sapiens, UniProt P04439, D140Y/D185E/D98H/E176V/E277Q/G131W/G231S/I119L/I121R/I166T/I218V/L180W/L300P/L318F/N151K/N90K/P208A/P217A/Q67R/Q86G/Q94H/R138H/R169H/T345S); experiment: purified HLA class I binding assay, A*0202
HLA-A*0203 = HLA-A*0203 (Homo sapiens, UniProt P04439, A173T/D140Y/D185E/D98H/E277Q/G131W/G231S/I119V/I121R/I166T/I218V/L180W/L300P/L318F/N151K/N90K/P208A/P217A/Q86G/Q94H/R138H/R169H/T345S); experiment: purified HLA class I binding assay, A*0203
HLA-A*0206 = HLA-A*0206 (Homo sapiens, UniProt P04439, D140Y/D185E/D98H/E176V/E277Q/F33Y/G131W/G231S/I119V/I121R/I166T/I218V/L300P/L318F/N151K/N90K/P208A/P217A/Q86G/Q94H/R138H/R169H/T345S); experiment: purified HLA class I binding assay, A*0206
HLA-A*6802 = HLA-A*6802 (Homo sapiens, UniProt P04439, A269V/D140Y/D185E/E176V/E277Q/E87N/F33Y/G231S/I121R/I166T/I218V/L180W/L300P/L318F/N151K/P208A/P217A/Q86R/R138H/R169H/S129P/T345S/V36M); experiment: purified HLA class I binding assay, A*6802
[1] = Table IX, HIV A03 super motif peptides, binding value, unit not given
[2] = HIV A24 motif peptides, purified HLA-A24 molecule, unit not given
[3] = HIV A24 supermotif peptides, Table X, A*2401, unit not given
[4] = Table VIII, HIV A02 Super Motif Peptides with Binding Information, unit not given
[5] = HIV A02 super motif peptides, Table VIII, unit not given

NMWQEVGKA
A*0201 (binding information) (HLA-A*0201; HIV A02 super motif peptides): 0.0022
A*2401 (binding information) (HLA-A*2402; HIV A24 supermotif peptides, purified HLA molecule, no unit printed in Table X): 0.0001

WMGYELIIPDK
A*0301 binding information (HLA-A*0301): 0.0005
A*1101 (binding information) (HLA-A*1101; [1]): 0.0004
A*1101 (binding information) (HLA-A*1101; Table XVII, HIV A11 motif peptides, binding value A*1101, unit not given): 0.0004
A*3101 binding information (HLA-A*3101): 0.0009
A*6801 binding information (HLA-A*6801): 0.0003

CC[C@H](C)[C@H](NC(=O)[C@H](Cc1ccccc1)NC(=O)CNC(=O)CNC(=O)[C@@H](NC(=O)CNC(=O)CNC(=O)[C@@H](NC(=O)[C@H](CCSC)NC(=O)[C@@H](N)CCCCN)[C@@H](C)CC)[C@@H](C)CC)C(=O)O [Peptide 1261.17]
pIC50 (HLA-A*0202): 7.26
pIC50 (HLA-A*0203): 8.32
pIC50 (HLA-A*0206): 6.11

RFAVPGLL
A*2401 (binding information) (HLA-A*2402; HIV A24 motif peptides, binding value for purified HLA-A24 molecule, A*2401, unit not given): 0.0100

CSCC[C@H](N)C(=O)N[C@@H](C)C(=O)N[C@@H](CO)C(=O)N[C@@H](CC(=O)O)C(=O)N[C@@H](Cc1ccccc1)C(=O)N[C@@H](CC(N)=O)C(=O)N[C@@H](CC(C)C)C(=O)N1CCC[C@H]1C(=O)N1CCC[C@H]1C(=O)N[C@H](C(=O)O)C(C)C [Peptide 1261.15]
pIC50 (HLA-A*0202): 7.65
pIC50 (HLA-A*0203): 7.25
pIC50 (HLA-A*0206): 7.47
pIC50 (HLA-A*6802): 7.74

QMAVFIIINF
A*2401 (binding information) (HLA-A*2402; [2]): 0.0190
A*2401 (binding information) (HLA-A*2402; [3]): 0.0190

LLWKGEGAVV [1069.33]
pIC50 (HLA-A*0202): 6.20
pIC50 (HLA-A*0203): 7.60
pIC50 (HLA-A*0206): 6.11

IWQLDCTIIL
A*2401 (binding information) (HLA-A*2402; [3]): 0.0095

GIPHPAGLK
A*1101 (binding information) (HLA-A*1101; [1]): 0.0650
A*3101 binding information (HLA-A*3101): 0.0007
A*6801 binding information (HLA-A*6801): 0.0110

CC(C)C[C@H](NC(=O)[C@H](CCCCN)NC(=O)[C@H](Cc1ccccc1)NC(=O)[C@H](CS)NC(=O)[C@H](Cc1c[nH]c2ccccc12)NC(=O)CNC(=O)[C@H](Cc1ccccc1)NC(=O)[C@@H](NC(=O)[C@H](CC(C)C)NC(=O)[C@@H]1CCCN1)[C@@H](C)O)C(=O)O [25.0142]
pIC50 (HLA-A*0202): 6.13
pIC50 (HLA-A*0206): 5.43
pIC50 (HLA-A*6802): 7.32

CC[C@H](C)[C@H](NC(=O)[C@H](CC(=O)O)NC(=O)[C@@H](NC(=O)[C@H](C)NC(=O)[C@H](CC(N)=O)NC(=O)[C@H](CC(C)C)NC(=O)[C@H](CC(C)C)NC(=O)[C@@H](N)CO)[C@@H](C)O)C(=O)N[C@@H](C)C(=O)N[C@H](C(=O)O)C(C)C [Peptide 1211.09]
pIC50 (HLA-A*0202): 5.89
pIC50 (HLA-A*0206): 7.55
pIC50 (HLA-A*6802): 5.26

LIFGWCFKLV
A*0201 (binding information) (HLA-A*0201; HIV A02 Super Motif Peptides with Binding Information): 0.0170
A*0202 binding information (HLA-A*0202; [4]): 0.0880
A*0203 binding information (HLA-A*0203; [4]): 0.0540
A*0206 binding information (HLA-A*0206; [4]): 0.0640
A*6802 binding information (HLA-A*6802; [4]): 6.5000

CC(C)C[C@H](NC(=O)[C@H](CCCCN)NC(=O)[C@H](Cc1ccccc1)NC(=O)[C@H](CS)NC(=O)[C@H](Cc1c[nH]c2ccccc12)NC(=O)CNC(=O)[C@H](Cc1ccccc1)NC(=O)[C@@H](NC(=O)[C@@H](N)CC(C)C)[C@@H](C)O)C(=O)N[C@H](C(=O)O)C(C)C [Peptide 1261.14]
pIC50 (HLA-A*0202): 7.31
pIC50 (HLA-A*6802): 8.21

PYNEWTLEL [Peptide 25.0128]
pIC50 (HLA-A*2402): 7.07

PYNLWILEL
A*2401 (binding information) (HLA-A*2402; HIV A24 supermotif peptides, A*2401, unit not given, so probably a relative binding value): 0.1400

YWQATWIPE
A*2401 (binding information) (HLA-A*2402; [2]): 0.0660
A*2401 (binding information) (HLA-A*2402; HIV A24 supermotif peptides, binding value printed without unit in Table X): 0.0660

QLLFIIIFRI
A*0201 binding (HLA-A*0201; HIV A02 super motif peptides): 0.0530
A*0202 binding (HLA-A*0202; [5]): 0.0002
A*0203 binding (HLA-A*0203; [5]): 0.0004
A*0206 binding (HLA-A*0206; [5]): 0.0023
A*6802 binding (HLA-A*6802; [5]): 0.0840

KLNWASQIYA [25.0161]
pIC50 (HLA-A*0202): 5.41
pIC50 (HLA-A*0203): 6.40
pIC50 (HLA-A*0206): 5.21
